Where two headings read alike, the source gives them in different places.
Columns and labels:
[1] = system: Enterobacter aerogenes; assay: Expected efficacy of antibiotic agents; type: cell-based; details: Gram: neg
[2] = system: Klebsiella (Calymmatobacterium) granulomatis; assay: Expected efficacy of antibiotic agents; type: cell-based; details: Gram: neg
[3] = system: Klebsiella oxytoca; assay: Expected efficacy of antibiotic agents; type: cell-based; details: Gram: neg
[4] = system: Brucella species; type: cell-based
[5] = system: Streptococcus pyogenes; assay: Expected efficacy of antibiotic agents; type: cell-based; details: Gram: pos
[6] = system: Serratia marcescens; assay: Expected efficacy of antibiotic agents; type: cell-based; details: Gram: neg
[7] = system: Klebsiella pneumoniae; assay: Expected efficacy of antibiotic agents; type: cell-based; details: Gram: neg
[8] = system: Enterobacter sakazakii; assay: Expected efficacy of antibiotic agents; type: cell-based; details: Gram: neg
[9] = system: Vibrio cholerae; assay: Expected efficacy of antibiotic agents; type: cell-based; details: Gram: neg
[10] = system: Legionella pneumophila; type: cell-based
[11] = system: Acinetobacter calcoaceticus; assay: Expected efficacy of antibiotic agents; type: cell-based; details: Gram: neg
[12] = system: Pseudomonas fluorescens; assay: Expected efficacy of antibiotic agents; type: cell-based; details: Gram: neg
[13] = system: Corynebacterium jeikeium; assay: Expected efficacy of antibiotic agents; type: cell-based; details: Gram: pos
[14] = system: Moraxella catarrhalis; assay: Expected efficacy of antibiotic agents; type: cell-based; details: Gram: neg
[15] = system: Citrobacter diversus; assay: Expected efficacy of antibiotic agents; type: cell-based; details: Gram: neg
[16] = system: Corynebacterium urealyticum; assay: Expected efficacy of antibiotic agents; type: cell-based; details: Gram: pos
[17] = system: Neisseria gonorrhoeae; assay: Expected efficacy of antibiotic agents; type: cell-based; details: Gram: neg
[18] = system: Providencia rettgeri; assay: Expected efficacy of antibiotic agents; type: cell-based; details: Gram: neg
[19] = system: Haemophilus ducreyi; assay: Expected efficacy of antibiotic agents; type: cell-based; details: Gram: neg
[20] = system: Shigella boydii; assay: Expected efficacy of antibiotic agents; type: cell-based; details: Gram: neg
[21] = system: Acinetobacter lwoffii; assay: Expected efficacy of antibiotic agents; type: cell-based; details: Gram: neg
[22] = system: Haemophilus influenzae; assay: Expected efficacy of antibiotic agents; type: cell-based; details: Gram: neg
[23] = system: Enterobacter cloacae; assay: Expected efficacy of antibiotic agents; type: cell-based; details: Gram: neg
[24] = system: Proteus vulgaris; assay: Expected efficacy of antibiotic agents; type: cell-based; details: Gram: neg
[25] = system: Shigella dysenteriae; assay: Expected efficacy of antibiotic agents; type: cell-based; details: Gram: neg
[26] = system: Citrobacter freundii; assay: Expected efficacy of antibiotic agents; type: cell-based; details: Gram: neg
[27] = system: Shigella flexneri; assay: Expected efficacy of antibiotic agents; type: cell-based; details: Gram: neg
[28] = system: Pseudomonas aeruginosa; assay: Expected efficacy of antibiotic agents; type: cell-based; details: Gram: neg
[29] = system: Clostridium perfringens; type: cell-based
[30] = system: Proteus mirabilis; assay: Expected efficacy of antibiotic agents; type: cell-based; details: Gram: neg
[31] = system: Rickettsiae; type: cell-based
[32] = system: Escherichia coli; assay: Expected efficacy of antibiotic agents; type: cell-based; details: Gram: neg
[33] = system: gram-positive staphylococci and streptococci; details: general description, no test given; cited from earlier work
[34] = system: Salmonella typhi; assay: Expected efficacy of antibiotic agents; type: cell-based; details: Gram: neg
[35] = system: Bartonella bacilliformis; assay: Expected efficacy of antibiotic agents; type: cell-based; details: Gram: neg
[36] = system: Methicillin resistant staph aureus (MRSA); assay: Expected efficacy of antibiotic agents; type: cell-based; details: Gram: pos
[37] = system: Staphylococcus aureus (MSSA); assay: Expected efficacy of antibiotic agents; type: cell-based; details: Gram: pos
[38] = system: Neisseria meningitidis; assay: Expected efficacy of antibiotic agents; type: cell-based; details: Gram: neg
[39] = system: Bordetella pertussis; assay: Expected efficacy of antibiotic agents; type: cell-based; details: Gram: neg
[40] = system: Yersinia pestis; type: cell-based
[41] = system: Francisella tularensis; type: cell-based
[42] = system: Providencia stuartii; assay: Expected efficacy of antibiotic agents; type: cell-based; details: Gram: neg
[43] = system: Shigella sonnei; assay: Expected efficacy of antibiotic agents; type: cell-based; details: Gram: neg
[44] = system: Campylobacter jejuni; assay: Expected efficacy of antibiotic agents; type: cell-based; details: Gram: neg
[45] = system: Acinetobacter baumannii; assay: Expected efficacy of antibiotic agents; type: cell-based; details: Gram: neg
[46] = system: Morganella morganii; assay: Expected efficacy of antibiotic agents; type: cell-based; details: Gram: neg
[47] = system: Diphtheroids; assay: Expected efficacy of antibiotic agents; type: cell-based; details: Gram: pos
[48] = system: Chlamydia trachomatis; assay: Expected efficacy of antibiotic agents; type: cell-based; details: Gram: n/a
[49] = system: Bacteroides fragilis; assay: Expected efficacy of antibiotic agents; type: cell-based; details: Gram: anaer
[50] = system: Enterococcus faecalis; assay: Expected efficacy of antibiotic agents; type: cell-based; details: Gram: pos
[51] = system: Staphylococcus epidermidis; assay: Expected efficacy of antibiotic agents; type: cell-based; details: Gram: pos
[52] = system: Streptococcus pneumoniae; assay: Expected efficacy of antibiotic agents; type: cell-based; details: Gram: pos
[53] = system: Chlamydia psittaci; type: cell-based
[54] = system: Chlamydia pneumoniae; assay: Expected efficacy of antibiotic agents; type: cell-based; details: Gram: n/a
[55] = system: Haemophilus parainfluenzae; assay: Expected efficacy of antibiotic agents; type: cell-based; details: Gram: neg
[56] = system: Viridans group streptococci; assay: Expected efficacy of antibiotic agents; type: cell-based; details: Gram: pos
[57] = system: Peptostreptococcus; assay: Expected efficacy of antibiotic agents; type: cell-based; details: Gram: pos
[58] = system: Clostridium difficile; assay: Expected efficacy of antibiotic agents; type: cell-based; details: Gram: anaer
[59] = system: Streptococcus agalactiae; assay: Expected efficacy of antibiotic agents; type: cell-based; details: Gram: pos
[60] = system: Mycoplasma pneumoniae; assay: Expected efficacy of antibiotic agents; type: cell-based; details: Gram: n/a
[61] = system: Enterococcus faecium; assay: Expected efficacy of antibiotic agents; type: cell-based; details: Gram: pos
[62] = system: Aspergillus flavus; assay: Expected efficacy of antifungal agents; type: cell-based
[63] = system: Aspergillus fumigatus; assay: Expected efficacy of antifungal agents; type: cell-based
[64] = system: Candida species; assay: Expected efficacy of antifungal agents; type: cell-based
[65] = system: Cryptococcus neoformans; assay: Expected efficacy of antifungal agents; type: cell-based
[66] = system: Coccidioides immitis; type: cell-based; details: expected efficacy
[67] = system: Histoplasma capsulatum; type: cell-based; details: expected efficacy
[68] = system: Blastomyces dermatitidis; assay: Expected efficacy of antifungal agents; type: cell-based

C/C(=C\C(=O)OCCCCCCCCC(=O)O)C[C@@H]1OC[C@H](C[C@@H]2O[C@H]2[C@@H](C)[C@H](C)O)[C@@H](O)[C@H]1O [Bactroban, Mupirocin]
excellent activity: activity against gram-positive staphylococci and streptococci [33]
no: efficacy against Enterobacter aerogenes [1] | efficacy against Klebsiella (Calymmatobacterium) granulomatis [2] | efficacy against Klebsiella oxytoca [3] | efficacy against Brucella species ([4]; expected efficacy, Gram: neg) | efficacy against Serratia marcescens [6] | efficacy against Klebsiella pneumoniae [7] | efficacy against Enterobacter sakazakii [8] | efficacy against Vibrio cholerae [9] | efficacy against Legionella pneumophila ([10]; expected efficacy, Gram: neg) | efficacy against Acinetobacter calcoaceticus [11] | efficacy against Pseudomonas fluorescens [12] | efficacy against Corynebacterium jeikeium [13] | efficacy against Moraxella catarrhalis [14] | efficacy against Citrobacter diversus [15] | efficacy against Corynebacterium urealyticum [16] | efficacy against Neisseria gonorrhoeae [17] | efficacy against Providencia rettgeri [18] | efficacy against Haemophilus ducreyi [19] | efficacy against Shigella boydii [20] | efficacy against Acinetobacter lwoffii [21] | efficacy against Haemophilus influenzae [22] | efficacy against Enterobacter cloacae [23] | efficacy against Proteus vulgaris [24] | efficacy against Shigella dysenteriae [25] | efficacy against Citrobacter freundii [26] | efficacy against Shigella flexneri [27] | efficacy against Pseudomonas aeruginosa [28] | efficacy against Clostridium perfringens ([29]; expected efficacy, Gram: anaer) | efficacy against Proteus mirabilis [30] | efficacy against Rickettsiae ([31]; expected efficacy, Gram: neg) | efficacy against Escherichia coli [32] | efficacy against Salmonella typhi [34] | efficacy against Bartonella bacilliformis [35] | efficacy against Neisseria meningitidis [38] | efficacy against Bordetella pertussis [39] | efficacy against Yersinia pestis ([40]; expected efficacy, Gram: neg) | efficacy against Francisella tularensis ([41]; expected efficacy, Gram: neg) | efficacy against Providencia stuartii [42] | efficacy against Shigella sonnei [43] | efficacy against Campylobacter jejuni [44] | efficacy against Acinetobacter baumannii [45] | efficacy against Morganella morganii [46]
yes: efficacy against Streptococcus pyogenes [5] | efficacy against Methicillin resistant staph aureus (MRSA) [36] | efficacy against Staphylococcus aureus (MSSA) [37]

CN[C@H](CC(C)C)C(=O)N[C@H]1C(=O)N[C@@H](CC(N)=O)C(=O)N[C@H]2C(=O)N[C@H]3C(=O)N[C@H](C(=O)N[C@H](C(=O)O)c4cc(O)cc(O)c4-c4cc3ccc4O)[C@H](O)c3ccc(c(Cl)c3)Oc3cc2cc(c3O[C@@H]2O[C@H](CO)[C@@H](O)[C@H](O)[C@H]2O[C@H]2C[C@](C)(N)[C@H](O)[C@H](C)O2)Oc2ccc(cc2Cl)[C@H]1O [Vancomycin]
yes: efficacy against Streptococcus pyogenes [5] | efficacy against Diphtheroids [47] | efficacy against Enterococcus faecalis [50] | efficacy against Corynebacterium jeikeium [13] | efficacy against Staphylococcus epidermidis [51] | efficacy against Streptococcus pneumoniae [52] | efficacy against Corynebacterium urealyticum [16] | efficacy against Viridans group streptococci [56] | efficacy against Peptostreptococcus [57] | efficacy against Methicillin resistant staph aureus (MRSA) [36] | efficacy against Staphylococcus aureus (MSSA) [37] | efficacy against Clostridium difficile [58] | efficacy against Streptococcus agalactiae [59]
no: efficacy against Enterobacter aerogenes [1] | efficacy against Klebsiella (Calymmatobacterium) granulomatis [2] | efficacy against Klebsiella oxytoca [3] | efficacy against Brucella species [4] | efficacy against Chlamydia trachomatis [48] | efficacy against Serratia marcescens [6] | efficacy against Klebsiella pneumoniae [7] | efficacy against Enterobacter sakazakii [8] | efficacy against Bacteroides fragilis [49] | efficacy against Vibrio cholerae [9] | efficacy against Legionella pneumophila [10] | efficacy against Acinetobacter calcoaceticus [11] | efficacy against Pseudomonas fluorescens [12] | efficacy against Moraxella catarrhalis [14] | efficacy against Citrobacter diversus [15] | efficacy against Chlamydia psittaci [53] | efficacy against Neisseria gonorrhoeae [17] | efficacy against Providencia rettgeri [18] | efficacy against Haemophilus ducreyi [19] | efficacy against Chlamydia pneumoniae [54] | efficacy against Shigella boydii [20] | efficacy against Acinetobacter lwoffii [21] | efficacy against Haemophilus influenzae [22] | efficacy against Enterobacter cloacae [23] | efficacy against Haemophilus parainfluenzae [55] | efficacy against Proteus vulgaris [24] | efficacy against Shigella dysenteriae [25] | efficacy against Citrobacter freundii [26] | efficacy against Shigella flexneri [27] | efficacy against Pseudomonas aeruginosa [28] | efficacy against Clostridium perfringens [29] | efficacy against Proteus mirabilis [30] | efficacy against Rickettsiae [31] | efficacy against Escherichia coli [32] | efficacy against Salmonella typhi [34] | efficacy against Bartonella bacilliformis [35] | efficacy against Neisseria meningitidis [38] | efficacy against Bordetella pertussis [39] | efficacy against Yersinia pestis [40] | efficacy against Mycoplasma pneumoniae [60] | efficacy against Francisella tularensis [41] | efficacy against Providencia stuartii [42] | efficacy against Shigella sonnei [43] | efficacy against Campylobacter jejuni [44] | efficacy against Acinetobacter baumannii [45] | efficacy against Morganella morganii [46]
yes, not VRE: efficacy against Enterococcus faecium [61]

OC(Cn1cncn1)(Cn1cncn1)c1ccc(F)cc1F [Fluconazole]
yes: efficacy against Aspergillus flavus [62] | efficacy against Aspergillus fumigatus [63] | efficacy against Candida species [64] | efficacy against Cryptococcus neoformans [65] | efficacy against Coccidioides immitis [66] | efficacy against Histoplasma capsulatum [67] | efficacy against Blastomyces dermatitidis [68]

Source: patent US9707229B2, “Compositions and methods for treating an infection” (CMPD LICENSING, LLC, priority 2015, dated 2017)
